Assay results taken from ChEMBL document CHEMBL6127079, “Design and synthesis of spiro[pyrrolidine-3,3'-quinoline]-2,2'-dione derivatives as novel antifungal agents targeting chitin synthase” (Eur J Med Chem, 2024).
In brackets after ≈: the same amount, converted by molar mass.

How the values were obtained:
[1] = test system: Candida tropicalis; experiment: Inhibition of chitin synthase extracted from Candida tropicalis ATCC 750 using UDP-GlcNAc as substrate assessed as inhibition rate at 300 ug/ml by TMB based microplate analyzer relative to control; settings: dose 300.0 µg/ml
[2] = Inhibition of chitin synthase extracted from Candida tropicalis ATCC 750 using UDP-GlcNAc as substrate assessed as inhibition rate by TMB based microplate analyzer relative to control
[3] = test system: Candida albicans; experiment: Antifungal activity against Candida albicans ATCC 76615 assessed as inhibition of growth incubated for 24 hrs by two-fold serial dilution method; format: functional
[4] = test system: Aspergillus flavus; experiment: Antifungal activity against Aspergillus flavus ATCC 16870 assessed as inhibition of growth incubated for 24 hrs by two-fold serial dilution method; format: functional
[5] = test system: Aspergillus fumigatus; experiment: Antifungal activity against Aspergillus fumigatus GIMCC 3.19 assessed as inhibition of growth incubated for 24 hrs by two-fold serial dilution method; format: functional
[6] = test system: Cryptococcus neoformans; experiment: Antifungal activity against Cryptococcus neoformans ATCC 32719 assessed as inhibition of growth incubated for 24 hrs by two-fold serial dilution method; format: functional
[7] = test system: Candida albicans; experiment: Antifungal activity against drug-resistant Candida albicans ATCC 76615 assessed as inhibition of cell wall synthesis in presence of sorbitol incubated for 24 hrs; format: functional
[8] = test system: Aspergillus flavus; experiment: Antifungal activity against drug-resistant Aspergillus flavus ATCC 16870 assessed as inhibition of cell wall synthesis in presence of sorbitol incubated for 24 hrs; format: functional
[9] = test system: Aspergillus fumigatus; experiment: Antifungal activity against drug-resistant Aspergillus fumigatus GIMCC 3.19 assessed as inhibition of cell wall synthesis in presence of sorbitol incubated for 24 hrs; format: functional
[10] = test system: Cryptococcus neoformans; experiment: Antifungal activity against drug-resistant Cryptococcus neoformans ATCC 32719 assessed as inhibition of cell wall synthesis in presence of sorbitol incubated for 24 hrs; format: functional
[11] = test system: Candida albicans; experiment: Antifungal activity against fluconazole-resistant Candida albicans ATCC 76615 assessed as inhibition of fungal growth incubated for 24 to 72 hrs; format: functional; settings: time 24-72 hrs
[12] = test system: Aspergillus flavus; experiment: Antifungal activity against fluconazole-resistant Aspergillus flavus ATCC 16870 assessed as inhibition of fungal growth incubated for 24 to 72 hrs; format: functional; settings: time 24-72 hrs
[13] = test system: Aspergillus fumigatus; experiment: Antifungal activity against fluconazole-resistant Aspergillus fumigatus GIMCC 3.19 assessed as inhibition of fungal growth incubated for 24 to 72 hrs; format: functional; settings: time 24-72 hrs
[14] = test system: Cryptococcus neoformans; experiment: Antifungal activity against fluconazole-resistant Cryptococcus neoformans ATCC 32719 assessed as inhibition of fungal growth incubated for 24 to 72 hrs; format: functional; settings: time 24-72 hrs
[15] = test system: Candida albicans; experiment: Antifungal activity against micafungin-resistant Candida albicans ATCC 76615 assessed as inhibition of fungal growth incubated for 24 to 72 hrs; format: functional; settings: time 24-72 hrs
[16] = test system: Candida albicans; experiment: Antifungal activity against Candida albicans ATCC 76615 incubated for 24 hrs by half broth dilution based checkerboard method; format: functional
[17] = test system: Aspergillus flavus; experiment: Antifungal activity against Aspergillus flavus ATCC 16870 incubated for 24 hrs by half broth dilution based checkerboard method; format: functional
[18] = test system: Aspergillus fumigatus; experiment: Antifungal activity against Aspergillus fumigatus GIMCC 3.19 incubated for 24 hrs by half broth dilution based checkerboard method; format: functional
[19] = test system: Cryptococcus neoformans; experiment: Antifungal activity against Cryptococcus neoformans ATCC 32719 incubated for 24 hrs by half broth dilution based checkerboard method; format: functional
[20] = test system: Candida albicans; experiment: Antifungal activity against Candida albicans ATCC 76615 assessed as fluconazole MIC incubated for 24 hrs in presence of fluconazole by half broth dilution based checkerboard method; format: functional
[21] = test system: Aspergillus flavus; experiment: Antifungal activity against Aspergillus flavus ATCC 16870 assessed as fluconazole MIC incubated for 24 hrs in presence of fluconazole by half broth dilution based checkerboard method; format: functional
[22] = test system: Aspergillus fumigatus; experiment: Antifungal activity against Aspergillus fumigatus GIMCC 3.19 assessed as fluconazole MIC incubated for 24 hrs in presence of fluconazole by half broth dilution based checkerboard method; format: functional
[23] = test system: Cryptococcus neoformans; experiment: Antifungal activity against Cryptococcus neoformans ATCC 32719 assessed as fluconazole MIC incubated for 24 hrs in presence of fluconazole by half broth dilution based checkerboard method; format: functional
[24] = test system: Aspergillus fumigatus; experiment: Synergistic antifungal activity against Aspergillus fumigatus GIMCC 3.19 assessed as fractional inhibitory concentration index in presence of fluconazole incubated for 24 hrs by half broth dilution based checkerboard method; format: functional
[25] = test system: Candida albicans; experiment: Synergistic antifungal activity against Candida albicans ATCC 76615 assessed as fractional inhibitory concentration index in presence of fluconazole incubated for 24 hrs by half broth dilution based checkerboard method; format: functional
[26] = test system: Aspergillus flavus; experiment: Synergistic antifungal activity against Aspergillus flavus ATCC 16870 assessed as fractional inhibitory concentration index in presence of fluconazole incubated for 24 hrs by half broth dilution based checkerboard method; format: functional
[27] = test system: Cryptococcus neoformans; experiment: Synergistic antifungal activity against Cryptococcus neoformans ATCC 32719 assessed as fractional inhibitory concentration index in presence of fluconazole incubated for 24 hrs by half broth dilution based checkerboard method; format: functional
[28] = test system: Candida albicans; experiment: Antifungal activity against Candida albicans ATCC 76615 assessed as Polyoxin B MIC incubated for 24 hrs in presence of fluconazole by half broth dilution based checkerboard method; format: functional
[29] = test system: Aspergillus flavus; experiment: Antifungal activity against Aspergillus flavus ATCC 16870 assessed as Polyoxin B MIC incubated for 24 hrs in presence of fluconazole by half broth dilution based checkerboard method; format: functional
[30] = test system: Aspergillus fumigatus; experiment: Antifungal activity against Aspergillus fumigatus GIMCC 3.19 assessed as Polyoxin B MIC incubated for 24 hrs in presence of fluconazole by half broth dilution based checkerboard method; format: functional
[31] = test system: Cryptococcus neoformans; experiment: Antifungal activity against Cryptococcus neoformans ATCC 32719 assessed as Polyoxin B MIC incubated for 24 hrs in presence of fluconazole by half broth dilution based checkerboard method; format: functional
[32] = test system: Candida albicans; experiment: Synergistic antifungal activity against Candida albicans ATCC 76615 assessed as fractional inhibitory concentration index in presence of Polyoxin B incubated for 24 hrs by half broth dilution based checkerboard method; format: functional
[33] = test system: Aspergillus flavus; experiment: Synergistic antifungal activity against Aspergillus flavus ATCC 16870 assessed as fractional inhibitory concentration index in presence of Polyoxin B incubated for 24 hrs by half broth dilution based checkerboard method; format: functional
[34] = test system: Aspergillus fumigatus; experiment: Synergistic antifungal activity against Aspergillus fumigatus GIMCC 3.19 assessed as fractional inhibitory concentration index in presence of Polyoxin B incubated for 24 hrs by half broth dilution based checkerboard method; format: functional
[35] = test system: Cryptococcus neoformans; experiment: Synergistic antifungal activity against Cryptococcus neoformans ATCC 32719 assessed as fractional inhibitory concentration index in presence of Polyoxin B incubated for 24 hrs by half broth dilution based checkerboard method; format: functional
[36] = test system: A549; experiment: Cytotoxicity against human A549 cells assessed as reduction in cell viability at 4 microg/ml incubated for 24 hrs by CCK-8 assay relative to control; format: toxicity, cell-based; settings: a549, 24 h, at 4 µg/mL
[37] = test system: A549; experiment: Cytotoxicity against human A549 cells assessed as reduction in cell viability at 8 microg/ml incubated for 24 hrs by CCK-8 assay relative to control; format: toxicity, cell-based; settings: a549, 24 h, at 8 µg/mL
[38] = test system: A549; experiment: Cytotoxicity against human A549 cells assessed as reduction in cell viability at 16 microg/ml incubated for 24 hrs by CCK-8 assay relative to control; format: toxicity, cell-based; settings: a549, 24 h, at 16 µg/mL
[39] = test system: A549; experiment: Cytotoxicity against human A549 cells assessed as reduction in cell viability at 32 microg/ml incubated for 24 hrs by CCK-8 assay relative to control; format: toxicity, cell-based; settings: a549, 24 h, at 32 µg/mL
[40] = test system: A549; experiment: Cytotoxicity against human A549 cells assessed as reduction in cell viability at 64 microg/ml incubated for 24 hrs by CCK-8 assay relative to control; format: toxicity, cell-based; settings: a549, 24 h, at 64 µg/mL
[41] = test system: A549; experiment: Cytotoxicity against human A549 cells assessed as reduction in cell viability at 128 microg/ml incubated for 24 hrs by CCK-8 assay relative to control; format: toxicity, cell-based; settings: a549, 24 h, at 128 µg/mL

`O=C(CN1CCC(C(=O)Nc2ccc(Br)cc2)CC1)Nc1ccc2c(c1)NC(=O)C1(CCNC1=O)C2` (racemic) gave an inhibition [1] of 63%, an IC50 [2] of 116 µM and an MIC [3] of 16 µg/mL (≈ 28.9 µM). It also gave an MIC [4] of 32 µg/mL (≈ 57.7 µM), an MIC [5] of 16 µg/mL (≈ 28.9 µM) and an MIC [6] of 8 µg/mL (≈ 14.4 µM). It also gave an MIC [7] of 256 µg/mL, an MIC [8] of 256 µg/mL and an MIC [9] of 512 µg/mL. For the same molecule, the MIC [10] was 128 µg/mL, the MIC [11] was 32 µg/mL (≈ 57.7 µM) and the MIC [12] was 64 µg/mL (≈ 115 µM). The MIC [13] was 64 µg/mL (≈ 115 µM), the MIC [14] was 32 µg/mL (≈ 57.7 µM) and the MIC [15] was 32 µg/mL (≈ 57.7 µM). The MIC [16] was 16 µg/mL, the MIC [17] was 32 µg/mL and the MIC [18] was 16 µg/mL. For the same molecule, the MIC [19] was 8 µg/mL, the MIC [20] was 4 µg/mL and the MIC [21] was 4 µg/mL. For the same molecule, the MIC [22] was 2 µg/mL, the MIC [23] was 2 µg/mL and the “fractional inhibitory concentration index (FICI)” value [24] was 1. The “fractional inhibitory concentration index (FICI)” value [25] was 1, the “fractional inhibitory concentration index (FICI)” value [26] was 1.25 and the “fractional inhibitory concentration index (FICI)” value [27] was 0.75. It also gave an MIC [28] of 16 µg/mL, an MIC [29] of 32 µg/mL and an MIC [30] of 16 µg/mL. The MIC [31] was 8 µg/mL, the “fractional inhibitory concentration index (FICI)” value [32] was 1 and the fractional inhibitory concentration index (FICI) [33] was 0.5. The “fractional inhibitory concentration index (FICI)” value [34] was 1 and the “fractional inhibitory concentration index (FICI)” value [35] was 1.5.

With `O=C(CN1CCC(C(=O)Nc2cccc(Br)c2)CC1)Nc1ccc2c(c1)NC(=O)C1(CCNC1=O)C2` (racemic) the inhibition [1] was 80.6%, the IC50 [2] was 101 µM and the MIC [3] was 16 µg/mL (≈ 28.9 µM). It also gave an MIC [4] of 32 µg/mL (≈ 57.7 µM), an MIC [5] of 32 µg/mL (≈ 57.7 µM) and an MIC [6] of 8 µg/mL (≈ 14.4 µM). The MIC [7] was 128 µg/mL, the MIC [8] was 256 µg/mL and the MIC [9] was 256 µg/mL. For the same molecule, the MIC [10] was 256 µg/mL, the MIC [11] was 32 µg/mL (≈ 57.7 µM) and the MIC [12] was 32 µg/mL (≈ 57.7 µM). The MIC [13] was 64 µg/mL (≈ 115 µM), the MIC [14] was 32 µg/mL (≈ 57.7 µM) and the MIC [15] was 64 µg/mL (≈ 115 µM). For the same molecule, the MIC [16] was 16 µg/mL, the MIC [17] was 32 µg/mL and the MIC [18] was 32 µg/mL. For the same molecule, the MIC [19] was 8 µg/mL, the MIC [20] was 1 µg/mL and the MIC [21] was 1.25 µg/mL. The MIC [22] was 1 µg/mL, the MIC [23] was 0.75 µg/mL and the “fractional inhibitory concentration index (FICI)” value [24] was 0.75. For the same molecule, the “fractional inhibitory concentration index (FICI)” value [25] was 1.25, the “fractional inhibitory concentration index (FICI)” value [26] was 0.625 and the “fractional inhibitory concentration index (FICI)” value [27] was 1.5. The MIC [28] was 16 µg/mL, the MIC [29] was 32 µg/mL and the MIC [30] was 32 µg/mL. For the same molecule, the MIC [31] was 8 µg/mL, the “fractional inhibitory concentration index (FICI)” value [32] was 1.5 and the “fractional inhibitory concentration index (FICI)” value [33] was 1.25. For the same molecule, the “fractional inhibitory concentration index (FICI)” value [34] was 0.75 and the “fractional inhibitory concentration index (FICI)” value [35] was 1.

Work on `NC(=O)OC[C@H](O)[C@@H](O)[C@H](N)C(=O)N[C@H](C(=O)O)[C@H]1O[C@@H](n2cc(CO)c(=O)[nH]c2=O)[C@H](O)[C@@H]1O` [POLYOXIN B] yielded an inhibition [1] of 86.4%, an IC50 [2] of 82 µM and an MIC [3] of 16 µg/mL (≈ 31.5 µM). For the same molecule, the MIC [4] was 16 µg/mL (≈ 31.5 µM), the MIC [5] was 8 µg/mL (≈ 15.8 µM) and the MIC [6] was 16 µg/mL (≈ 31.5 µM). For the same molecule, the MIC [8] was 512 µg/mL, the MIC [9] was 128 µg/mL and the MIC [10] was 256 µg/mL. It also gave an MIC [16] of 16 µg/mL, an MIC [17] of 16 µg/mL and an MIC [18] of 8 µg/mL. It also gave an MIC [19] of 16 µg/mL, an Activity [36] of 99.2% and an Activity [37] of 98.8%. It also gave an Activity [38] of 97.9%, an Activity [39] of 92.7% and an Activity [40] of 91.2%. For the same molecule, the Activity [41] was 84.3%.
